Like-named read-outs stand apart in the source and are kept apart here.
Columns and labels:
HBV = assay: Cell-based anti-HBV activity of HF9C6 analogs (Table 2; HBV DNA in HepAD38 cells); details: Hepatitis B virus
Procedure: HepAD38 cells (5×10^4) were plated in 96-well plates in tet media. The next day, cells were washed 2× with PBS, and the media was replaced with complete media (DMEM, 10% FBS) containing compounds. Fresh complete media with compounds was added again after 2 days. After 2 additional days, cells were washed with PBS, trypsinized, and pelleted by centrifugation. The cell pellet was resuspended in 200 μl PBS, and DNA was extracted and analyzed as above. For dose responses, values were plotted in GraphPad Prism 5 and analyzed with the log (inhibitor) vs. normalized response—variable slope equation.
HepAD38 cells were seeded in 96-well plates (3×10^4 cells/well) in tet media. […] After 2 days, the media was removed, and fresh media containing compounds was added. After 2 additional days, cells were washed with PBS and lysed with 10 mM Tris (pH 7.5), 1mM EDTA, 100mM NaCl, 1% NP-40 at 37° C. for 30 min. 60 μl of lysate was added to 60 μl of 1 M NaOH, 1.5 M NaCl and incubated at RT for 5 min to denature DNA. 120 μl of 1 M Tris (pH 7.4), 2 M NaCl was added. Samples were transferred to positively charged nylon membranes (Roche) using a vacuum dot blot manifold. The wells were washed with 200 μl of 20× SSC (3M NaCl, 300 mM sodium citrate), and the DNA was UV crosslinked to the membranes. […] Membranes were incubated with CDP-STAR® chemiluminescent substrate (Roche), imaged by chemiluminescence, and quantified by densitometry. Values were plotted in GraphPad Prism 5 and analyzed with the log (inhibitor) vs. normalized response—variable slope equation.

[1] = Cytotoxicity, Cell Proliferation Kit II (XTT) (Table 2); format: cell-based; details: human
Procedure: HepG2 cells were treated with compounds as in the antiviral screening above. At the end of treatment duration, cell viability was assessed with the Cell Proliferation Kit II (XTT) (Roche, Basel, Switzerland) according to the manufacturer's instructions. Values were plotted in GraphPad Prism 5 and analyzed with the log (inhibitor) vs. normalized response—variable slope equation.

[2] = Table 2, cell-based, read-out: EC50

Row | SMILES | EC50 (HBV; [2]) [µM] | CC50 ([1]; HepG2 cells) [µM] | other results
1 | COc1ccc(NC(=O)c2sc(N)c(C(N)=O)c2C)cc1 [ZW-769, 5-Amino-N2-(4-methoxyphenyl)-3-methylthiophene-2,4-dicarboxamide] | ~10 | – | –
2 | Cc1c(C(=O)NCc2ccccc2)sc(N)c1C(N)=O [ZW-770, 5-Amino-N2-benzyl-3-methylthiophene-2,4-dicarboxamide] | ~10 | – | –
3 | Cc1ccc(NC(=O)c2sc(N)c(C(N)=O)c2C)cc1 [ZW-771, 5-Amino-3-methyl-N2-(p-tolyl)thiophene-2,4-dicarboxamide] | > 10 | – | –
4 | CCOC(=O)c1sc2[nH]c(Cc3ccccc3)nc(=O)c2c1C [ZW-772, Ethyl 2-benzyl-5-methyl-4-oxo-1,4-dihydrothieno[2,3-d]pyrimidine-6-carboxylate] | – | – | EC50 (HBV): > 10 µM
5 | CCOC(=O)c1sc2[nH]c(Cc3cc(C)cc(C)c3)nc(=O)c2c1C [ZW-773, Ethyl 2-(3,5-dimethylbenzyl)-5-methyl-4-oxo-1,4-dihydrothieno[2,3-d]pyrimidine-6-carboxylate] | > 10 | – | –
6 | CCOC(=O)c1sc2[nH]c(Cc3ccc(-c4ccccc4)cc3)nc(=O)c2c1C [ZW-774, Ethyl 2-([1,1′-biphenyl]-4-ylmethyl)-5-methyl-4-oxo-1,4-dihydrothieno[2,3-d]pyrimidine-6-carboxylate] | > 10 | – | –
7 | CCOC(=O)c1sc2[nH]c(-c3ccc(C)c(F)c3)nc(=O)c2c1C [ZW-775, Ethyl 2-(3-fluoro-4-methylphenyl)-5-methyl-4-oxo-1,4-dihydrothieno[2,3-d]pyrimidine-6-carboxylate] | > 10 | – | –
8 | CCOC(=O)c1sc2[nH]c(Cc3ccc(F)cc3)nc(=O)c2c1C [ZW-776, Ethyl 2-(4-fluorobenzyl)-5-methyl-4-oxo-1,4-dihydrothieno[2,3-d]pyrimidine-6-carboxylate] | > 10 | – | –
9 | CCOC(=O)c1sc2[nH]c(C3CCCCC3)nc(=O)c2c1C [ZW-777, Ethyl 2-cyclohexyl-5-methyl-4-oxo-1,4-dihydrothieno[2,3-d]pyrimidine-6-carboxylate] | > 10 | – | –
10 | Cc1c(C(=O)Nc2ccccc2)sc(N)c1C(=O)NCc1ccc(C(F)(F)F)cc1 [ZW-790, 5-Amino-3-methyl-N2-phenyl-N4-(4-(trifluoromethyl)benzyl)thiophene-2,4-dicarboxamide] | > 10 | – | –
11 | COc1ccc(CNC(=O)c2c(N)sc(C(=O)Nc3ccccc3)c2C)cc1 [ZW-791, 5-Amino-N4-(4-methoxybenzyl)-3-methyl-N2-phenylthiophene-2,4-dicarboxamide] | > 10 | – | –
12 | Cc1c(C(=O)Nc2ccccc2)sc(N)c1C(=O)NC1CC1 [ZW-792, 5-Amino-N4-cyclopropyl-3-methyl-N2-phenylthiophene-2,4-dicarboxamide] | > 10 | – | –
13 | Cc1c(C(=O)Nc2ccccc2)sc(N)c1C(=O)Nc1ccccc1 [ZW-794, 5-Amino-3-methyl-N2,N4-diphenylthiophene-2,4-dicarboxamide] | – | > 100 | –
14 | Cc1c(C(=O)Nc2ccc(F)c(F)c2)sc(N)c1C(=O)Nc1ccccc1 [ZW-892, 5-Amino-N2-(3,4-difluorophenyl)-3-methyl-N4-phenylthiophene-2,4-dicarboxamide] | – | – | CC50 [1]: 26.2 ± 2.7 µM
15 | Cc1c(C(=O)Nc2ccc(F)c(F)c2)sc(N)c1C(=O)Nc1ccc(Cl)cc1 [ZW-893, 5-Amino-N4-(4-chlorophenyl)-N2-(3,4-difluorophenyl)-3-methylthiophene-2,4-dicarboxamide] | > 10 | – | –
16 | Cc1c(C(=O)Nc2ccc(F)c(F)c2)sc(N)c1C(=O)NC1CCCC1 [ZW-894, 5-Amino-N4-cyclopentyl-N2-(3,4-difluorophenyl)-3-methylthiophene-2,4-dicarboxamide] | > 10 | – | –
17 | Cc1c(C(=O)Nc2ccccc2)sc(N)c1C(=O)NC1CCCC1 [ZW-895, 5-Amino-N4-cyclopentyl-3-methyl-N2-phenylthiophene-2,4-dicarboxamide] | > 10 | – | –
18 | Cc1c(C(=O)Nc2ccc(F)c(F)c2)sc(N)c1C(N)=O [ZW-896, 5-Amino-N2-(3,4-difluorophenyl)-3-methylthiophene-2,4-dicarboxamide] | – | > 100 | –
19 | Cc1c(C(=O)Nc2ccc(F)c(F)c2)sc(N)c1C(=O)Nc1ccc(F)c(F)c1 [ZW-932, 5-Amino-N2,N4-bis(3,4-difluorophenyl)-3-methylthiophene-2,4-dicarboxamide] | – | 17.4 ± 1.3 | –
20 | Cc1c(C(=O)Nc2ccccc2)sc(N)c1C(=O)Nc1ccc(F)c(F)c1 [ZW-933, 5-Amino-N4-(3,4-difluorophenyl)-3-methyl-N2-phenylthiophene-2,4-dicarboxamide] | – | – | CC50 [1]: 40.5 ± 5.1 µM
21 | Cc1cc(NC(=O)c2c(N)sc(C(=O)Nc3ccccc3)c2C)ccc1F [ZW-934, 5-Amino-N4-(4-fluoro-3-methylphenyl)-3-methyl-N2-phenylthiophene-2,4-dicarboxamide] | – | – | CC50 [1]: 39.6 ± 2.6 µM

Row | SMILES | EC50 (HBV; [2]) [µM] | CC50 ([1]; HepG2 cells) [µM] | other results
22 | Cc1c(C(=O)Nc2cc(F)c(F)c(Cl)c2)sc(N)c1C(N)=O [ZW-1034, 5-Amino-N2-(3-chloro-4,5-difluorophenyl)-3-methylthiophene-2,4-dicarboxamide] | – | – | CC50 [1]: 71.8 ± 4.1 µM
23 | Cc1c(C(=O)Nc2ccc(F)cc2)sc(N)c1C(N)=O [ZW-1037, 5-Amino-N2-(4-fluorophenyl)-3-methylthiophene-2,4-dicarboxamide] | – | > 100 | –
24 | Cc1c(C(=O)Nc2ccc(F)c(C#N)c2)sc(N)c1C(N)=O [ZW-1039, 5-Amino-N2-(3-cyano-4-fluorophenyl)-3-methylthiophene-2,4-dicarboxamide] | – | > 100 | –
25 | Cc1c(C(=O)Nc2ccccc2)sc(NC(=O)c2cc(Cl)cc(Cl)c2)c1C(N)=O [ZW-1040, 5-(3,5-Dichlorobenzamido)-3-methyl-N2-phenylthiophene-2,4-dicarboxamide] | – | – | CC50 [1]: 49.5 ± 0.1 µM
26 | Cc1c(C(=O)Nc2ccc(F)c(F)c2)sc(N)c1C#N [ZW-1043, 5-Amino-4-cyano-N-(3,4-difluorophenyl)-3-methylthiophene-2-carboxamide] | ~10 | > 100 | –
27 | Cc1cc(NC(=O)c2sc(N)c(C#N)c2C)ccc1F [ZW-1044, 5-Amino-4-cyano-N-(4-fluoro-3-methylphenyl)-3-methylthiophene-2-carboxamide] | – | – | CC50 [1]: 96.1 ± 10.1 µM
28 | CCOC(=O)c1c(N)sc(C(=O)Nc2ccccc2)c1C [ZW-1045, Ethyl 2-amino-4-methyl-5-(phenylcarbamoyl)thiophene-3-carboxylate] | > 10 | – | CC50 [1]: 75.9 ± 1.8 µM
29 | CCOC(=O)c1c(N)sc(C(=O)Nc2ccc(F)c(C)c2)c1C [ZW-1046, Ethyl 2-amino-5-((4-fluoro-3-methylphenyl)carbamoyl)-4-methylthiophene-3-carboxylate] | – | > 100 | –
30 | Cc1c(C(=O)Nc2ccccc2)sc(NC(=O)Cc2ccc(F)c(F)c2)c1C(N)=O [ZW-1050] | ~10 | > 100 | –
31 | Cc1ccc(CC(=O)Nc2sc(C(=O)Nc3ccccc3)c(C)c2C(N)=O)cc1F [ZW-1051, 5-(2-(3-Fluoro-4-methylphenyl)acetamido)-3-methyl-N2-phenylthiophene-2,4-dicarboxamide] | > 10 | > 100 | –
32 | Cc1c(C(=O)Nc2ccccc2)sc(NC(=O)c2cn[nH]c2)c1C(N)=O [ZW-1052, 3-Methyl-N2-phenyl-5-(1H-pyrazole-4-carboxamido)thiophene-2,4-dicarboxamide] | – | > 100 | –
33 | Cc1c(C(=O)Nc2ccccc2)sc(NC(=O)c2nccs2)c1C(N)=O [ZW-1053, 3-Methyl-N2-phenyl-5-(thiazole-2-carboxamido)thiophene-2,4-dicarboxamide] | – | > 100 | –
34 | Cc1c(C(=O)Nc2ccccc2)sc(NC(=O)c2csc([N+](=O)[O-])c2)c1C(N)=O [ZW-1054, 3-Methyl-5-(5-nitrothiophene-3-carboxamido)-N2-phenylthiophene-2,4-dicarboxamide] | – | > 100 | –
35 | Cc1c(C(=O)Nc2ccccc2)sc(NC(=O)c2ccsc2)c1C(N)=O [ZW-1055, 3-Methyl-N2-phenyl-5-(thiophene-3-carboxamido)thiophene-2,4-dicarboxamide] | – | > 100 | –
36 | Cc1ccc(C(=O)Nc2sc(C(=O)Nc3ccccc3)c(C)c2C(N)=O)s1 [ZW-1056, 3-Methyl-5-(5-methylthiophene-2-carboxamido)-N2-phenylthiophene-2,4-dicarboxamide] | – | > 100 | –
37 | Cc1c(C(=O)Nc2ccc(F)c(C(F)(F)F)c2)sc(N)c1C(N)=O [ZW-1057, 5-Amino-N2-(4-fluoro-3-(trifluoromethyl)phenyl)-3-methylthiophene-2,4-dicarboxamide] | – | > 100 | –
38 | Cc1c(C(=O)Nc2ccc(F)c(C(F)F)c2)sc(N)c1C(N)=O [ZW-1066, 5-Amino-N2-(3-(difluoromethyl)-4-fluorophenyl)-3-methylthiophene-2,4-dicarboxamide] | – | > 100 | –
39 | Cc1c(C(=O)Nc2ccc(Cl)c(C(F)(F)F)c2)sc(N)c1C(N)=O [ZW-1067, 5-Amino-N2-(4-chloro-3-(trifluoromethyl)phenyl)-3-methylthiophene-2,4-dicarboxamide] | – | – | CC50 [1]: 72.1 ± 6.4 µM
40 | Cc1cc(NC(=O)c2sc(N)c(C(N)=O)c2C)ccc1Br [ZW-1068, 5-Amino-N2-(4-bromo-3-methylphenyl)-3-methylthiophene-2,4-dicarboxamide] | – | – | CC50 [1]: 107 ± 7.2 µM
41 | Cc1c(C(=O)Nc2ccccc2)sc(NC(=O)c2ccc(S(C)(=O)=O)cc2)c1C(N)=O [ZW-1073, 3-Methyl-5-(4-(methylsulfonyl)benzamido)-N2-phenylthiophene-2,4-dicarboxamide] | – | > 100 | –
